Assay [1] deals with T1, Adrenergic β2 (Homo sapiens, UniProt P07550).
T1 construct: endogenous in cells; host or cells: H292 cells
Put plainly: Alternative Adrenergic β2 Mediated cAMP Production in H292 cells (AlphaScreen cAMP detection). In kind it is cell-based. The following applies: for EC50: cAMP, test compounds incubated 60 minutes, 300 μM rolipram, read-out: β2 pEC50 (converted); for β2 Int Act: fraction relative to the maximum activity determined for formoterol, 60 minutes incubation. The procedure: H292 cells were grown in 225 cm2 flasks incubator at 37° C., 5% CO2 in RPMI medium containing, 10% (v/v) FBS (foetal bovine serum) and 2 mM L-glutamine.
Adherent H292 cells were removed from tissue culture flasks by treatment with Accutase™ cell detachment solution for 15 minutes. Flasks were incubated for 15 minutes in a humidified incubator at 37° C., 5% CO2. Detached cells were re-suspended in RPMI media (containing 10% (v/v) FBS and 2 mM L-glutamine) at 0.05×10^6 cells per mL. 5000 cells in 100 μL were added to each well of a tissue-culture-treated 96-well plate and the cells incubated overnight in a humidified incubator at 37° C., 5% CO2. The culture media was removed and cells were washed twice with 100 μL assay buffer and replaced with 50 μL assay buffer (HBSS solution containing 10 mM HEPES pH7.4 and 5 mM glucose). […] Cells were incubated with rolipram for 10 minutes after which time test compounds were added and the cells were incubated for 60 minutes at room temperature. […] The reaction was stopped by removing supernatants, washing once with 100 μL assay buffer and replacing with 50 μL lysis buffer. The cell monolayer was frozen at −80° C. for 30 minutes (or overnight).
The concentration of cAMP (cyclic adenosine monophosphate) in the cell lysate was determined using AlphaScreen™ methodology. The frozen cell plate was thawed for 20 minutes on a plate shaker then 10 μL of the cell lysate was transferred to a 96-well white plate. 40 μL of mixed AlphaScreen™ detection beads pre-incubated with biotinylated cAMP, was added to each well and the plate incubated at room temperature for 10 hours in the dark. The AlphaScreen™ signal was measured using an EnVision spectrophotometer (Perkin-Elmer Inc.) with the recommended manufacturer's settings. cAMP concentrations were determined by reference to a calibration curve determined in the same experiment using standard cAMP concentrations. Concentration response curves for agonists were constructed and data was fitted to a four parameter logistic equation to determine both the pEC50 and Intrinsic Activity.
(In general: Alpha assays give light when donor and acceptor beads are brought close together.)

In assay [2] the target is T2, β2 receptor (Homo sapiens, UniProt P07550).
T2 construct: endogenous in cells; host or cells: H292 cells
Description: Adrenergic β2 mediated cAMP production in H292 cells (AlphaScreen cAMP detection). Type of assay: cell-based. Conditions: for EC50: cAMP, test compounds incubated 10 minutes, 300 μM rolipram; for Intrinsic Activity: fraction relative to the maximum activity determined for formoterol, 10 minutes incubation. The procedure:
H292 cells were grown in RPMI (Roswell Park Memorial Institute) medium containing, 10% (v/v) FBS (foetal bovine serum) and 2 mM L-glutamine. Cells were grown in 225 cm2 flasks containing 25 mL media in a humidified incubator at 37° C., 5% CO2. Cells were harvested from the flask and passaged at a 1 in 10 dilution once per week.
The media from flasks containing H292 cells was removed, rinsed with 10 mL PBS (phosphate buffered saline) and replaced with 10 mL Accutase™ cell detachment solution. Flasks were incubated for 15 minutes in a humidified incubator at 37° C., 5% CO2. The cell suspension was counted and the cells re-suspended in RPMI media (containing 10% (v/v) FBS and 2 mM L-glutamine) at 0.05×10^6 cells per mL. 5000 cells in 100 μL were added to each well of a tissue-culture-treated 96-well plate and the cells incubated overnight in a humidified incubator at 37° C., 5% CO2. The culture media was removed, washed twice with 100 μL assay buffer and replaced with 50 μL assay buffer. Cells were rested at room temperature for 20 minutes after which time 25 μL of rolipram (1.2 mM made up in assay buffer containing 2.4% (v/v) dimethylsulphoxide) was added. Cells were incubated with rolipram for 10 minutes after which time test compounds (made up as ×4 concentrated stocks in assay buffer containing 4% (v/v) dimethylsulphoxide) were added and the cells were incubated for 10 minutes at room temperature. Final rolipram concentration in the assay was 300 μM and final vehicle concentration was 1.6% (v/v) dimethylsulphoxide. The reaction was stopped by removing supernatants, washing once with 100 μL assay buffer and replacing with 50 μL lysis buffer. The cell monolayer was frozen at −80° C. for 30 minutes (or overnight).
The concentration of cAMP (cyclic adenosine monophosphate) in the cell lysate was determined using the AlphaScreen™ methodology. The frozen cell plate was thawed for 20 minutes on a plate shaker then 10 μL of the cell lysate was transferred to a 96-well white plate. 40 μL of mixed AlphaScreen™ detection beads (containing equal volumes of donor beads (pre-incubated with biotinylated cAMP in the dark for 30 minutes) and acceptor beads), was added to each well and the plate incubated at room temperature for 10 hours in the dark. The AlphaScreen™ signal was measured using an EnVision spectrophotometer (Perkin-Elmer Inc.) with the recommended manufacturer's settings. cAMP concentrations were determined by reference to a calibration curve determined in the same experiment using standard cAMP concentrations (made up in lysis buffer in a 96-well tissue-culture-treated plate and frozen/thawed alongside the test samples) and detected using the same protocol. Concentration response curves for agonists were constructed to determine both the pEC50 and Intrinsic Activity.

Assay [3] has as its target T3, recombinant human Dopamine Subtype D2s receptors (Homo sapiens, UniProt P14416).
T3 construct: purchased Perkin Elmer
Description: Dopamine D2 selectivity assay, inhibition of [3H]-spiperone binding. The following applies: membranes, [3H]-spiperone 0.16 nM; read-out: D2 bind pIC50 (converted). The procedure: Membranes containing recombinant human Dopamine Subtype D2s receptors were obtained from Perkin Elmer. These were diluted in Assay Buffer ([…] HEPES, 1 mM EDTA, 120 mM NaCl, 0.1% gelatin, pH 7.4) to provide a final concentration of membranes that gave a clear window between maximum and minimum specific binding.
Assays were performed in U-bottomed 96-well polypropylene plates. […] For each assay plate 8 replicates were obtained for [^3H]-spiperone binding in the presence of 30 μL vehicle (10% (v/v) DMSO in Assay Buffer; defining maximum binding) or 30 μL Haloperidol (10 μM final concentration; defining non-specific binding (NSB)). Membranes were then added to achieve a final volume of 300 μL. The plates were incubated for 2 hours at room temperature and then filtered onto PEI coated GF/B filter plates, pre-soaked for 1 hour in Assay Buffer, using a 96-well plate Tomtec cell harvester. Five washes with 250 μL wash buffer (50 mM HEPES, 1 mM EDTA, 120 mM NaCl, pH 7.4) were performed at 4° C. to remove unbound radioactivity. The plates were dried then sealed from underneath using Packard plate sealers and MicroScint-O (50 μL) was added to each well. The plates were sealed (TopSeal A) and filter-bound radioactivity was measured with a scintillation counter (TopCount, Packard BioScience) using a 3-minute counting protocol. Total specific binding (B0) was determined by subtracting the mean NSB from the mean maximum binding. NSB values were also subtracted from values from all other wells.

The target in assay [4] is T4, recombinant human α1D receptor (Homo sapiens, UniProt P25100).
T4 construct: expressed in transfected cells; host or cells: HEK293
T4 sequence (P25100 1-572): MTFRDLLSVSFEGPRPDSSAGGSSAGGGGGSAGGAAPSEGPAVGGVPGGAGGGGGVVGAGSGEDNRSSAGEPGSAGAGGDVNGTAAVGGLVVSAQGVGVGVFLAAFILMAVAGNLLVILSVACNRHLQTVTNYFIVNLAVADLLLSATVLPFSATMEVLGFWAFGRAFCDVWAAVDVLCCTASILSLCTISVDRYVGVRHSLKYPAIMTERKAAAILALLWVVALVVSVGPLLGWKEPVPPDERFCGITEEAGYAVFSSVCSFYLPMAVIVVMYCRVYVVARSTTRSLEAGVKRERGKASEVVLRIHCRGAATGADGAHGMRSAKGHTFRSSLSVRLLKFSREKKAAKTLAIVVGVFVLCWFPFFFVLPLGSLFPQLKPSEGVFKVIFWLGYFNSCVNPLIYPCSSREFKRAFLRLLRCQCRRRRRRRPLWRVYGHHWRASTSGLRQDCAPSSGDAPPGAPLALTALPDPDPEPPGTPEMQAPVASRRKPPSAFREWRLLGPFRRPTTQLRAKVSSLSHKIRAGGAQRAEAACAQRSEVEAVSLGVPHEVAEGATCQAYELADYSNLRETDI
Put plainly: Adrenergic α1D selectivity assay, inhibition of [3H]-prazosin binding. The following applies: HEK293 membranes, [3H]-prazosin 0.3 nM; read-out: α1 bind pIC50 (converted). The procedure: Membranes were prepared from human embryonic kidney 293 (HEK293) cells expressing recombinant human α1D receptor. These were diluted in Assay Buffer (50 mM HEPES, 1 mM EDTA, 0.1% gelatin, pH 7.4) to provide a final concentration of membranes that gave a clear window between maximum and minimum specific binding.
(§1) Assays were performed in U-bottomed 96-well polypropylene plates. 10 μL [^3H]-prazosin (0.3 nM final concentration) and 10 μL of test compound (10× final concentration) were added to each test well. For each assay plate 8 replicates were obtained for [^3H]-prazosin binding in the presence of 10 μL vehicle (10% (v/v) DMSO in Assay Buffer; defining maximum binding) or 10 μL BMY7378 (10 μM final concentration; defining non-specific binding (NSB)). Membranes were then added to achieve a final volume of 100 μL. The plates were incubated for 2 hours at room temperature and then filtered onto PEI coated GF/B filter plates, pre-soaked for 1 hour in Assay Buffer, using a 96-well plate Tomtec cell harvester. Five washes with 250 μL wash buffer (50 mM HEPES, 1 mM EDTA, pH 7.4) were performed at 4° C. to remove unbound radioactivity. The plates were dried then sealed from underneath using Packard plate sealers and MicroScint-O (50 μL) was added to each well. The plates were sealed (TopSeal A) and filter-bound radioactivity was measured with a scintillation counter (TopCount, Packard BioScience) using a 3-minute counting protocol.
(§2) Total specific binding (B0) was determined by subtracting the mean NSB from the mean maximum binding. NSB values were also subtracted from values from all other wells.

For assay [5], the target named is T5, recombinant human adrenergic beta 1 receptors (Homo sapiens, UniProt P08588).
T5 construct: purchased Euroscreen
Put plainly: Adrenergic β1 selectivity assay, inhibition of [125I]-Iodocyanopindolol binding. Conditions: membranes, [125I]-Iodocyanopindolol; read-out: β1 bind pIC50 (converted). As for the experimental part: Membranes containing recombinant human adrenergic beta 1 receptors were obtained from Euroscreen. These were diluted in Assay Buffer (50 mM HEPES, 1 mM EDTA, 120 mM NaCl, 0.1% gelatin, pH 7.4) to provide a final concentration of membranes that gave a clear window between maximum and minimum specific binding.
as §1, with “10 μL [^3H]-prazosin (0.3 nM final concentration) and 10 μL of test compound (10× final concentration) were added to each test well. For each assay plate 8 replicates were obtained for [^3H]-prazosin binding in the presence of 10 μL vehicle (10% (v/v) DMSO in Assay Buffer; defining maximum binding) or 10 μL BMY7378 (10 μM final concentration; defining non-specific binding (NSB)).” left out, “EDTA, 120 mM NaCl,” for “EDTA,”
as §2

SMILES strings stand for the structures. Structures can show the parent of a compound that is named as a salt.

The record followed here is patent US20090221653A1, “7-(2-amino-1-hydroxy-ethyl)-4-hydroxybenzothiazol-2(3H)-one-derivatives as beta2 adrenoreceptor agonists” (AstraZeneca AB, priority 2005, published 2009).

T2 sequence (P07550 whole entry): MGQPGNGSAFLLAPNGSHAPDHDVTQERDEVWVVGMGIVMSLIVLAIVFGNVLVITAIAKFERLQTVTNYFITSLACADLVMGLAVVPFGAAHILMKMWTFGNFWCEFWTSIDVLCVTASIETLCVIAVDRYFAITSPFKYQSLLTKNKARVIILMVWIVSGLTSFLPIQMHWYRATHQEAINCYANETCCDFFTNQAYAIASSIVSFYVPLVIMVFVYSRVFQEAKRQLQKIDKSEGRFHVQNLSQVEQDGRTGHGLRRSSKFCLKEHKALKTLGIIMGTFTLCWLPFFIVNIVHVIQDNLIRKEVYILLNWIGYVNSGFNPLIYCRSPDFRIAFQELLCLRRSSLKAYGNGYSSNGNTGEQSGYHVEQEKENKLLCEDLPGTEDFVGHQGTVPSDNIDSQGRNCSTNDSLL
T1 sequence (P07550 whole entry): as above
T3 sequence (P14416 1-414 isoform P14416-2): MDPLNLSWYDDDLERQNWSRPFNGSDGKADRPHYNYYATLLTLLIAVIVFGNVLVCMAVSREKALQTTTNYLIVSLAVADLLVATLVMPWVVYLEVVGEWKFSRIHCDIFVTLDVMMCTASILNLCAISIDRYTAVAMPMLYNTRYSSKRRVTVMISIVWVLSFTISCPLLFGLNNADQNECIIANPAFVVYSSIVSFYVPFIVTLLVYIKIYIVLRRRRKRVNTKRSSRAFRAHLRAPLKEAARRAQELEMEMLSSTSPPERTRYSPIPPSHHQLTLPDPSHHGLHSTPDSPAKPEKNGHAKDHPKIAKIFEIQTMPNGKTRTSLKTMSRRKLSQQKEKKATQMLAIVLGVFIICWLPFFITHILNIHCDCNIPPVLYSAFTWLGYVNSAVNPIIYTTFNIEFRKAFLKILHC
T5 sequence (P08588 whole entry): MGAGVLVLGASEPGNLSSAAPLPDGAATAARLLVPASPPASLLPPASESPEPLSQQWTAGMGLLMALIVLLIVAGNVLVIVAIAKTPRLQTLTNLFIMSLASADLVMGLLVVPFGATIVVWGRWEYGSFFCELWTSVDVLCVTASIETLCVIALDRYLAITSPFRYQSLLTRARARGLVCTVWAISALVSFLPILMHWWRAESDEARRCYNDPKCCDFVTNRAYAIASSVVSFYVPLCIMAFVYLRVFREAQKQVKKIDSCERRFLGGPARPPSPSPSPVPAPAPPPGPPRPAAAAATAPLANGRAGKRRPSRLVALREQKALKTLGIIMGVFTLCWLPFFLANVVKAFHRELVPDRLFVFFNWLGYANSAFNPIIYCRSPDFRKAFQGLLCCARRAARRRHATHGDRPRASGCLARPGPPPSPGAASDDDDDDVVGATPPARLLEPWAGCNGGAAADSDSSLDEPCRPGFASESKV

On to `Cl.O=c1[nH]c2c(O)ccc([C@@H](O)CNCCCSCCCOCCc3ccc(Br)cc3)c2s1` [Example 5, 7-((1R)-2-{[3-({3-[2-(4-Bromophenyl)ethoxy]propyl}thio)propyl]amino}-1-hydroxyethyl)-4-hydroxy-1,3-benzothiazol-2(3-H)-one hydrochloride], for which, in assay [1], the EC50 is 0.0501 nM and the “β2 Int Act” value was determined as 0.9. Further, in assay [2], the EC50 is 0.0631 nM and the “Intrinsic Activity” value worked out at 0.7.

With `Cl.O=c1[nH]c2c(O)ccc([C@@H](O)CNCCSCCCOCCc3ccccc3)c2s1` [Example 8, 4-Hydroxy-7-{(1R)-1-hydroxy-2-[(2-{[3-(2-phenylethoxy)propyl]thio}-ethyl)amino]ethyl}-1,3-benzothiazol-2(3H)-one hydrochloride], in assay [1], the “β2 Int Act” value worked out at 1. Further, in assay [3], the IC50 was 1000 nM. The “Intrinsic Activity” value in assay [2] is reported as 1.0.

Take `CN(CCCSCCNC[C@H](O)c1ccc(O)c2[nH]c(=O)sc12)CCc1ccccc1` [Example 12, 4-Hydroxy-7-((1R)-1-hydroxy-2-{[2-({3-[methyl(2-phenylethyl)amino]propyl}-thio)ethyl]amino}ethyl)-1,3-benzothiazol-2(3H)-one trifluoroacetate]: in assay [1], the EC50 is 3.16 nM and the “β2 Int Act” value was determined as 1. Moreover, in assay [2], the EC50 is 5.01 nM and the “Intrinsic Activity” value is reported as 0.8.

Regarding `C[C@H](CNCCCSCCNC[C@H](O)c1ccc(O)c2[nH]c(=O)sc12)c1ccccc1` [Example 48, (S)-(−)-7-[(1R)-2-({2-[(3-{[2-(phenyl)propyl]amino}propyl)thio]ethyl}amino)-1-hydroxyethyl]-4-hydroxy-1,3-benzothiazol-2(3H)-one dihydrochloride], the IC50 is 1580 nM in assay [4], 3980 nM in assay [3] and 158 nM in assay [5]. In assay [1], the EC50 is 1.26 nM. Besides, the “β2 Int Act” value in assay [1] was determined as 0.9.
